# Assay results taken from patent US5972899A, “Apoptosis induced by Shigella IpaB” (New York University, priority 1996, dated 1999).
# System: J774 cells infected with S. flexneri M90T
# Experiment: LDH release cytotoxicity assay, J774 cells infected with S. flexneri M90T
# Assay type: cell-based, murine
# Description: In the studies the results of which are shown in FIG. 5, 2×10^4 J774 or peritoneal macrophage cells were seeded onto 96-well plates 18 hours before infection with M90T at a multiplicity of infection of 25 bacteria per cell (Clerc, P. L. et al., supra). Two hours after infection, supernatants of the infected macrophages were assayed for LDH using the Cytotox96® kit (Promega) according to the manufacture's instructions. The percent cytotoxicity was calculated as: [formula] where spontaneous release is the amount of LDH activity in supernatants of cells not infected and total release is the LDH activity in macrophage lysates. ICE inhibitor was added 1 h before infection at a concentration of 25 μg/ml.
smiles,measurement,setting,value
CC(=O)N[C@@H](Cc1ccc(O)cc1)C(=O)N[C@H](C(=O)N[C@@H](C)C(=O)N[C@H](C=O)CC(=O)O)C(C)C [Ac-YVAD-CHO],inhibition at 25 µg/mL,"Mus musculus, ICE inhibitor 25 μg/ml added 1 h before infection, M90T at 25 bacteria per cell, LDH release 2 h after infection, read-out: inhibition of S. flexneri-induced cell death",81.5%
same,reversibility of the inhibition of cell death,inhibitor washed away (FIG. 5),reversed by washing away the inhibitor
